Among the test systems are CCRF-CEM leukemia; PC-3 prostate; IGROV1 ovarian; HCT-116 colon; SR leukemia; 786-0 renal; SK-MEL-2 melanoma; COLO 205 colon; U251 CNS; K-562 leukemia.
Common to all, as to experiment: growth of human tumour cells (NCI), 48 h

The results in this text go back to PubChem BioAssay (NCI).

Molecules are shown by their SMILES.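 Dose response: 5 concentrations. Exposure: 48 h. Format: 96-well plates. Endpoint: linear interpolation; highest concentration if not reached. At the GI50, growth is halved. Definition used: TGI = concentration required for complete inhibition of growth.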

In the case of `C=C1CCC2C3(C)COC(c4ccccc4)OC3CCC2(C)C1/C=C/C1=CCOC1=O` (stereo not given), the GI50 in the experiment on CCRF-CEM leukemia is 1.89 µM; in the experiment with PC-3 prostate it was 4.75 µM; in the experiment with IGROV1 ovarian it was 3.4 µM; in the experiment on HCT-116 colon, 1.95 µM; in the experiment on SR leukemia it was 1.27 µM; in the experiment with 786-0 renal it was 13 µM. Also, the GI50 with SK-MEL-2 melanoma is 4.81 µM; in the experiment with COLO 205 colon it was 4.09 µM; with U251 CNS, 2.87 µM; in the experiment on K-562 leukemia it was 2.31 µM. The TGI in the experiment with CCRF-CEM leukemia amounted to 5.65 µM; with PC-3 prostate, 51.3 µM; with IGROV1 ovarian it was 11.9 µM; in the experiment with HCT-116 colon it was 5.64 µM; in the experiment on SR leukemia it was 4.06 µM; in the experiment on 786-0 renal, 30 µM. The TGI is 15.9 µM in the experiment on SK-MEL-2 melanoma, 16.8 µM in the experiment on COLO 205 colon, 12.3 µM in the experiment with U251 CNS and above 100 µM in the experiment with K-562 leukemia.

In the case of `CC(=O)c1c(C)[nH]c(-c2nc3ccc(N4CCN(C)CC4)cc3[nH]2)c1-c1ccc(N(C)C)cc1`, the GI50 in the experiment with CCRF-CEM leukemia was 1.16 µM; in the experiment on PC-3 prostate, 0.894 µM; in the experiment with IGROV1 ovarian it was 0.936 µM; in the experiment with HCT-116 colon, 0.803 µM; in the experiment with SR leukemia, 0.923 µM; with 786-0 renal, 1.44 µM. In addition, the GI50 with SK-MEL-2 melanoma is 2.58 µM; in the experiment on COLO 205 colon, 0.292 µM; in the experiment on U251 CNS, 2.11 µM; in the experiment on K-562 leukemia it was 0.461 µM. For the same compound, the TGI in the experiment on CCRF-CEM leukemia is above 37.7 µM; in the experiment with PC-3 prostate, 66.9 µM; in the experiment on IGROV1 ovarian, 12.3 µM; in the experiment on HCT-116 colon, 13.6 µM; in the experiment with SR leukemia it was 6.81 µM; in the experiment on 786-0 renal it was 16.7 µM. Further, the TGI is 17.6 µM with SK-MEL-2 melanoma, 14 µM in the experiment on COLO 205 colon, above 65.5 µM in the experiment with U251 CNS and 8.79 µM in the experiment with K-562 leukemia.

As to `O=Nc1ccc(NO)c2ccccc12`, the GI50 with CCRF-CEM leukemia is 8.04 µM; in the experiment on PC-3 prostate, 2.44 µM; in the experiment with IGROV1 ovarian, 3.62 µM; with HCT-116 colon, 3.15 µM; in the experiment on SR leukemia, 16.3 µM; in the experiment with 786-0 renal, 18.6 µM. Besides, the GI50 in the experiment on SK-MEL-2 melanoma was 18.3 µM; with COLO 205 colon, 14.7 µM; in the experiment with U251 CNS, 13.1 µM; in the experiment with K-562 leukemia it was 16.1 µM. Further, the TGI in the experiment on CCRF-CEM leukemia stood at 58.9 µM; in the experiment with PC-3 prostate, 13.2 µM; in the experiment on IGROV1 ovarian, 16.4 µM; in the experiment with HCT-116 colon, 12.7 µM; in the experiment on SR leukemia it was 62 µM; in the experiment on 786-0 renal it was 33.1 µM. Besides, the TGI with SK-MEL-2 melanoma was 34.4 µM; in the experiment with COLO 205 colon, 29.3 µM; with U251 CNS, 26.1 µM; in the experiment with K-562 leukemia, 44.6 µM.

Turning to `CCN(CC)CCCNCc1cc(-c2ccccc2)nc2ccccc12`, the GI50 in the experiment on CCRF-CEM leukemia was 2.22 µM; with PC-3 prostate it was 11.2 µM; in the experiment on IGROV1 ovarian it was 23.1 µM; in the experiment on HCT-116 colon, 0.352 µM; in the experiment with SR leukemia, 0.348 µM; with 786-0 renal it was 11.1 µM. In addition, the GI50 was 10.2 µM with SK-MEL-2 melanoma, 15.8 µM in the experiment on COLO 205 colon, 4.16 µM in the experiment on U251 CNS and 5.63 µM in the experiment on K-562 leukemia. The TGI was above 100 µM in the experiment with CCRF-CEM leukemia; above 100 µM with PC-3 prostate; above 100 µM in the experiment on IGROV1 ovarian; 17.9 µM in the experiment with HCT-116 colon; 13.1 µM in the experiment on SR leukemia; 28.3 µM with 786-0 renal. The TGI with SK-MEL-2 melanoma came to 22.9 µM; in the experiment with COLO 205 colon it was 31.3 µM; with U251 CNS, 19.4 µM; in the experiment on K-562 leukemia it was 22.1 µM.

Turning to `NCC1OC(n2cnc3c(N)ncnc32)CC1O` (stereo not given), the TGI with CCRF-CEM leukemia, in the experiment on PC-3 prostate, with IGROV1 ovarian, with HCT-116 colon, in the experiment on SR leukemia and in the experiment with 786-0 renal was above 100 µM in each case. Moreover, the TGI in the experiment on SK-MEL-2 melanoma, in the experiment with COLO 205 colon, with U251 CNS and with K-562 leukemia was above 100 µM each time.

As to `Cn1cnc([N+](=O)[O-])c1Sc1nc(N)nc2c1ncn2C1CC(O)C(CO)O1` (stereo not given), the TGI in the experiment with CCRF-CEM leukemia was above 100 µM; in the experiment on PC-3 prostate, above 100 µM; in the experiment with IGROV1 ovarian, above 100 µM; with HCT-116 colon, above 100 µM; in the experiment on SR leukemia, 18.7 µM; in the experiment with 786-0 renal, above 100 µM. Moreover, the TGI in the experiment on SK-MEL-2 melanoma is 25.7 µM; in the experiment on COLO 205 colon, above 34.3 µM; in the experiment on U251 CNS it was above 100 µM; with K-562 leukemia it was above 100 µM.

For the compound `CS(=O)(=O)CCc1cccc(C(=O)c2cnn(-c3ccc(F)cc3)c2N)c1`, the GI50 in the experiment with CCRF-CEM leukemia, in the experiment with PC-3 prostate, in the experiment with IGROV1 ovarian, in the experiment with HCT-116 colon, in the experiment with SR leukemia and in the experiment on 786-0 renal was above 25 µM in each case. The GI50 in the experiment with SK-MEL-2 melanoma, in the experiment with COLO 205 colon, with U251 CNS and in the experiment on K-562 leukemia was above 25 µM in each case. Moreover, the TGI in the experiment with CCRF-CEM leukemia, in the experiment with PC-3 prostate, with IGROV1 ovarian, in the experiment with HCT-116 colon, with SR leukemia and in the experiment with 786-0 renal was above 25 µM throughout. In addition, the TGI in the experiment with SK-MEL-2 melanoma, in the experiment on COLO 205 colon, in the experiment on U251 CNS and in the experiment on K-562 leukemia was above 25 µM throughout.
